In paper PMC10249021 (Journal of the American Chemical Society, 2020):

Assay: Thermal stability of oxytocin and analogues at 50 °C by LCMS analysis
Assay type: physicochemical
Details: thermal degradation in water at 50 °C; read-out LCMS analysis

Q: With `CC[C@H](C)[C@@H]1NC(=O)[C@H](Cc2ccc(O)cc2)NC(=O)[C@@H](N)CSSC[C@@H](C(=O)N2CCC[C@H]2C(=O)N[C@@H](CC(C)C)C(=O)NCC(N)=O)NC(=O)[C@H](CC(N)=O)NC(=O)[C@H](CCC(N)=O)NC1=O` [oxytocin] as the molecule, how does the “half-life (thermal stability)” value read?
A: 93.6 h
